Measurements: PMC12064818, “A general assay platform to study protein pharmacology using ligand-dependent structural dynamics” (Nature Communications, 2025)
Read-outs that look alike come from different tables or passages of the source.

How the values were obtained:
NLuc = target: T1, NLuc (Oplophorus gracilirostris, UniProt Q9GV45, A31E/A60N/A81I/F95D/I117V/K70R/L54V/L99Q/M102K/N193R/P142E/Q151K/Q38R/Q45L/V71I/Y165I); format: biochemical; conditions: - ATP
T1 construct: His tag (inferred from IMAC purification); made in house; host or cells: E. coli
T1 sequence (Q9GV45 other isoform, or with tags, fused parts or gaps with the stated changes): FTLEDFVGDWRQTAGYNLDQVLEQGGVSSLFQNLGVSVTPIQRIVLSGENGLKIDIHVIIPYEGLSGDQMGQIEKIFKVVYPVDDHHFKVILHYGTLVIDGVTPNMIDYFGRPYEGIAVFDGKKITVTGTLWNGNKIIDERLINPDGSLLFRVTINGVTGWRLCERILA
Procedure, shortened: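 Luminescence was read 10 min after Nano-Glo reagent addition. Enzyme was 1 nM NLuc in PBS/0.05% IGEPAL buffer, with or without ATP.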

P. pyralis FLuc = P. pyralis FLuc (Photinus pyralis, UniProt P08659); experiment: FLuc enzymatic luminescence assay, P. pyralis FLuc; format: biochemical; conditions: FLuc enzymatic assay; for IC50: read-out: IC50 or SDR50 (mM) FLuc E
Chain of P. pyralis FLuc (P08659 whole entry): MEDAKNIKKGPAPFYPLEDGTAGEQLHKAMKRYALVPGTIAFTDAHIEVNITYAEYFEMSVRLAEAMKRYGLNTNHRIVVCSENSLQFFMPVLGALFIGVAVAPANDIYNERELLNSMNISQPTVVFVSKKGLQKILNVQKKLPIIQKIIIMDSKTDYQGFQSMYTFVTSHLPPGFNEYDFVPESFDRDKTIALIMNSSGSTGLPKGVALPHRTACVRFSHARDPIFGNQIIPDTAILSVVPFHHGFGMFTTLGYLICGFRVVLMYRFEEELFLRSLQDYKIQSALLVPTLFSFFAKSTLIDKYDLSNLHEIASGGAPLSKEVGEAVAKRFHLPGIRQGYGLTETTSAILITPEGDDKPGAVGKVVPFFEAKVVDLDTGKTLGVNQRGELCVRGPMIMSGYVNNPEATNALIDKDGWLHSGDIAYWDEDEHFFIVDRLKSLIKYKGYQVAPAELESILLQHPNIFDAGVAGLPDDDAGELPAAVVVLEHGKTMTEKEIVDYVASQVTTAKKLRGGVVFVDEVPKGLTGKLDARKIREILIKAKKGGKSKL
Procedure, shortened: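 Runs with and without 10 µM ATP: compounds were pre-incubated with FLuc (1–10 nM, PBS pH 7.4) at ambient temperature, light-protected, for 30–60 min. Luminescence was imaged 5 min after adding 10 µM D-luciferin (final). Inhibition was scaled between DMSO neutral and no-enzyme controls.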

FLuc-C-HiBiT = target: T2, FLuc-C-HiBiT (Photinus pyralis, UniProt P08659); experiment: biochemical; conditions: enzyme activity, 10 uM ATP; read-out: IC50 or SDR50 (mM) / FLuc E
T2 construct: firefly luciferase with C-terminal HiBiT tag, E. coli expressed
T2 sequence (P08659 whole entry, looked up): as the sequence (P08659 whole entry) above

[1] = target: FLuc-C-NLuc (firefly luciferase) (Photinus pyralis, UniProt P08659, form not given/L550V); experiment: SDR assay, FLuc-C-NLuc; conditions: - ATP
Chain of FLuc-C-NLuc (firefly luciferase) (P08659 2-550 L550V, form open): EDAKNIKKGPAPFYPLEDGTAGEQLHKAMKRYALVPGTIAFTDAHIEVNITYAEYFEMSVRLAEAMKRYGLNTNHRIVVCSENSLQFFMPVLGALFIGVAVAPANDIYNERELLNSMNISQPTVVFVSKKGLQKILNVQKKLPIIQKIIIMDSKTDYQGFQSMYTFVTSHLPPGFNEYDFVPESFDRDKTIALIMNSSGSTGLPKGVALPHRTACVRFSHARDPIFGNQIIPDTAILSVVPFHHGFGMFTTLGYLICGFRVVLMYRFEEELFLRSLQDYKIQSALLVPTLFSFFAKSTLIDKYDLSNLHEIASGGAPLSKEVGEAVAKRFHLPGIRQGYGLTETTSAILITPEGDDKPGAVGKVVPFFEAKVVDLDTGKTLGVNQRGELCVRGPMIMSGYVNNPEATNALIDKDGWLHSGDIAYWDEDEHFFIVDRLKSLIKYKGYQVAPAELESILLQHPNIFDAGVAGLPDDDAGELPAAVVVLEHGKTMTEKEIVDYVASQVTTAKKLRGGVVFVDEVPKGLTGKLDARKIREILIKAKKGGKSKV

[2] = target: FLuc-C-HiBiT (firefly luciferase) (Photinus pyralis, UniProt P08659, form not given/L550V); experiment: SDR assay, FLuc-C-HiBiT; conditions: SDR max. response, clade S
Chain of FLuc-C-HiBiT (firefly luciferase) (P08659 2-550 L550V, form open): as above

Row | SMILES | Efficacy (%) NLuc (- ATP) (NLuc) [%] | Efficacy (%) FLuc E (P. pyralis FLuc; Clade S follow-up) [%] | pIC50 or pSDR50 FLuc E (P. pyralis FLuc; Clade S follow-up) | IC50 (P. pyralis FLuc; Clade S follow-up) [mM] | IC50 (FLuc-C-HiBiT) [mM] | Efficacy (%) FLuc-C-NLuc SDR (-ATP) [1] [%] | % Activity (max response, + ATP) [2] [%] | % Activity (max response, - ATP) [2] [%] | pIC50 or pSDR50 FLuc E (P. pyralis FLuc) | IC50 (P. pyralis FLuc) [mM]
1 | COc1ccc(NC(=O)C2CCN(C(=O)c3ncn4c3COC(c3ccccc3)C4)CC2)cc1OC (stereo not shown) [NCGC00449911-01] | 11.18 | -91.83 | 5.51 | 0.00312 | 0.00351 | 0.00 | 240.56 | 15.50 |  | 
2 | O=C(Nc1cccc(F)c1)C1CCN(C(=O)c2ncn3c2COC(c2ccccc2)C3)CC1 (stereo not shown) [NCGC00449914-01] | 0.00 | -105.74 | 6.21 | 0.00062 | 0.000881 | 0.00 | 387.59 | 0.00 |  | 
3 | COc1ccc(C)cc1NC(=O)C1CCN(C(=O)c2ncn3c2COC(c2ccc(F)cc2)C3)CC1 (stereo not shown) [NCGC00449936-01] | 0.00 | -99.49 | 5.06 | 0.0088 | 0.00989 | 0.00 | 128.83 | -5.78 |  | 
4 | O=C(NCc1cccs1)C1CCN(C(=O)c2ncn3c2COC(c2ccccc2)C3)CC1 (stereo not shown) [NCGC00449792-01] | 0.00 | -100.37 |  |  | 0.00248 | 0.00 | 209.49 | 17.67 | 5.51 | 0.00312
5 | O=C(NCc1ccco1)C1CCN(C(=O)c2ncn3c2COC(c2ccccc2)C3)CC1 (stereo not shown) [NCGC00449791-01] | 0.00 | -97.55 |  |  | 0.00248 | 0.00 | 367.63 | 0.00 | 5.56 | 0.00278
6 | CC(C)c1ccc(NC(=O)C2CCN(C(=O)c3ncn4c3COC(c3ccccc3)C4)CC2)cc1 (stereo not shown) [NCGC00449909-01] | 0.00 | -93.68 | 5.51 | 0.00312 | 0.00351 | 0.00 | 370.54 | 0.00 |  | 
7 | O=C(NCc1ccc(F)cc1Cl)C1CCN(C(=O)c2ncn3c2COC(c2ccccc2)C3)CC1 (stereo not shown) [NCGC00449789-01] | 0.00 | -100.38 |  |  | 0.00881 | 0.00 | 205.97 | 0.00 | 5.01 | 0.00988
8 | O=C(NCc1ccncc1)C1CCN(C(=O)c2ncn3c2COC(c2ccc(F)cc2)C3)CC1 (stereo not shown) [NCGC00449833-01] | -20.01 | -87.47 | 5.21 | 0.00623 | 0.0111 | 0.00 | 157.03 | 0.00 |  | 
